From patent US10654890B2, “Cyclic peptide derivative, method for preparing same and composition thereof” (priority 2014, dated 2020) come the findings set out here.

Structures can show the parent of a compound that is named as a salt.

Test [1] addresses acetylcholine esterase (AChE) (Homo sapiens, UniProt P22303). As to the kind of experiment: Acetylcholine esterase inhibitory activity test. As to conditions: 1000 nM; FIG. 11. In kind it is biochemical. An excerpt: Most of existing therapeutic agents for Alzheimer's disease have, as a target mechanism, the inhibitory activity for an acetylcholine esterase which is an enzyme for decomposing acetylcholine as a neurotransmitter. Namely, by inhibiting an acetylcholine esterase, the therapeutic agents for Alzheimer's disease increase an in vivo concentration of acetylcholine.

Another test deals with VGF gene. As to the kind of experiment: VGF gene expression in culture astrocyte (real time PCR). It is filed as cell-based, mouse. The settings on record: 25 μM; from 8 hours to 24 hours after the addition; p<0.05 vs before the addition; calibrated to GAPDH. The procedure: By adding the cyclic peptide derivative of 25 μM to an astrocyte of the secondary subculture, the influence on expression of the gene of NGF, GDNF, VFGF-A, BDNF, and VGF as a representative neurotrophic factor was determined over time.
Except that a cell suspension of an astrocyte of the secondary subculture was prepared to have cell concentration of 3×10^5 cells/ml and the time for exposing the astrocyte to the above 25 μM cyclic peptide derivative was set at 0, 1, 2, 4, 8, 12, and 24 hours, the astrocyte was cultured in the same order as above <6>. As a control group, LG-D-MEM (0% FBS) not added with any cyclic peptide derivative was used.
Each astrocyte which has been exposed to the cyclic peptide derivative during each time described above was collected, and then, by using RNeasy Mini Kit (QIAGEN), extraction and purification of total RNA were carried out. The extracted total RNA was quantified by using Nano Photometer (IMPLEN). For the reverse transcription reaction, cDNA was synthesized by reacting 500 ng of total RNA with PrimeScript RT Master Mix (TaKaRa) at 37° C. for 15 minutes using GeneAmp PCR System 9600 (PERKIN ELMER), and the reaction was terminated by heating for 5 seconds at 85° C. […]
A general note: In qPCR the cycle at which signal appears reflects the starting amount.

Test [2] relates to senescence-accelerated model mouse SAMP8. As to the kind of experiment: Step through passive avoidance test. It is filed as in vivo. An excerpt:
As a mouse for an in vivo test of the cyclic peptide derivative, senescence-accelerated model mouse SAMP8 which is used as a cognitive disorder model animal of initial Alzheimer's disease accompanied with aging was selected, and as a control, SAMR1 mouse with normal aging was selected.
19-Week old male mice of SAMR1 and SAMP8 were purchased from Japan SLC, Inc., and divided into 5 groups, i.e., mouse group with normal aging (SAMR1), senescence-accelerated model mouse group (SAMP8), {P8+donepezil hydrochloride 1250 μg/kg/day} group as a positive control, and {P8+cyclic peptide derivative 2.5 μg/kg/day} group and {P8+cyclic peptide derivative 25 μg/kg/day} group as a test group. The animal was individually kept, i.e., one animal per cage, in a room with controlled environment {room temperature: 23±2° C., light and dark cycle: lighting time of 12 hours (time with light: 07:00 to 19:00), time without light: 12 hours}. The test was carried out in a time window of from 13:00 to 18:00 in an incubator with constant temperature and constant humidity (temperature 23±2° C., humidity 50±10%). After 10 days of an acclimation period, all mice were provided with standard meal (MEQ, Oriental Yeast Company) and body weight of the animal was recorded everyday during the entire test period. […]
(3) {P8+donepezil hydrochloride 1250 μg/kg/day} group: As a positive control, donepezil hydrochloride (Sanyo Chemical Laboratories CO., LTD.) was dissolved in MQ and prepared to have a concentration of 1250 μg/kg (bodyweight), and then orally administered to a SAMP8 for 5 weeks by using a gastric sonde. The concentration was accurately calculated based on the bodyweight which has been measured every day. […]
(4) {P8+cyclic peptide derivative 2.5 μg/kg/day} group: As a test group, the cyclic peptide derivative was dissolved in MQ and prepared to have a concentration of 2.5 μg/kg (bodyweight), and then orally administered to a SAMP8 for 5 weeks by using a gastric sonde. The concentration was accurately calculated based on the bodyweight which has been measured every day. […]

Test [3] has the same test system. As to the kind of experiment: Damaged area ratio of body hair surface by scanning probe microscope. It is filed as in vivo. An excerpt: As for the apparatus, tapping mode scanning probe microscope (SPM: SPA400, Hitachi High-Tech Science Corporation) was used.
As a sample, body hair in head and neck part of a mouse was collected by plucking from the origin, and the observation was made by using the tapping mode scanning probe microscope described above.

Chain of acetylcholine esterase (AChE) (P22303 32-614): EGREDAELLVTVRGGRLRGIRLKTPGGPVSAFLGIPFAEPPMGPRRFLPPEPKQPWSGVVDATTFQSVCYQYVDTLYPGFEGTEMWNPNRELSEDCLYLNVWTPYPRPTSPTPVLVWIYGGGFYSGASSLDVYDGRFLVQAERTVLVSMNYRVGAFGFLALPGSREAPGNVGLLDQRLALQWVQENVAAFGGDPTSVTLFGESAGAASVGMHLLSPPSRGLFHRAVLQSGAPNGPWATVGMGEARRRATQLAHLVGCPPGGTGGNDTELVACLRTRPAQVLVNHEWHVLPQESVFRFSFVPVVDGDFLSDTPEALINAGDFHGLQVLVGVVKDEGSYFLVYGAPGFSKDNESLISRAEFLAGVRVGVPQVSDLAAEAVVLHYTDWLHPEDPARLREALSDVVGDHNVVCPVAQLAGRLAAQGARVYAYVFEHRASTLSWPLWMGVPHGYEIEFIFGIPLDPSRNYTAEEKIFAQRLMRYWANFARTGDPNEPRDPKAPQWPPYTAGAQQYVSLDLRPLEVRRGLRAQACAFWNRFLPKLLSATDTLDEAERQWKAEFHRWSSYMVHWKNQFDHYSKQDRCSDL

With `CCC1(C)Oc2cc(ccc2O)C(O)C(NC)C(=O)NC(C(C)C)C(=O)NC1C(=O)NC(CCC(=O)O)C(=O)O` (stereo not shown) [cyclic peptide derivative], in test [1], the AChE inhibitory activity entry was “absolutely no AChE activity was observed”. For the same compound, in the test on VGF gene, the “expression of the gene of VGF” value is given as “increased”. In addition, the “contextual learning ability (latency in post-shock trial)” value in test [2] (SAMP8, oral 2.5 μg/kg/day) was “recovered to the level of a mouse with normal aging”; in test [2] (SAMP8, oral 25 μg/kg/day), “recovered to the level of a mouse with normal aging”. Moreover, the “damage ratio on a surface of mouse body hair” value in test [3] (SAMP8, oral 2.5 μg/kg/day) is given as “lowered to the same level as those of a mouse with normal aging”; in test [3] (SAMP8, oral 25 μg/kg/day), “lowered to the same level as those of a mouse with normal aging”.

On to `COc1cc2c(cc1OC)C(=O)C(CC1CCN(Cc3ccccc3)CC1)C2` (stereo not shown) [donepezil hydrochloride, reference compound], for which the “latency in post-shock trial” value in test [2] (SAMP8, oral 1250 μg/kg/day, compared to SAMP8 not administered with anything, p<0.05) is listed as “short latency in significant sense”.
